Tests used:
[1] = tested on: Leucine-rich repeat serine/threonine-protein kinase 2 (Homo sapiens), Q5S007 [G2019S]; assay: Inhibition of LRRK2 G2019S mutant (unknown origin) at 1 uM incubated for 30 mins in presence of [gamma-33P]ATP by multidrop micro reagent based assay relative to control; values are per cent of control
[2] = target: Protein kinase C alpha type (Homo sapiens) (UniProt P17252); assay: Inhibition of PKCalpha (unknown origin) at 1 uM incubated for 30 mins in presence of [gamma-33P]ATP by multidrop micro reagent based assay relative to control; values are per cent of control
[3] = target: Leucine-rich repeat serine/threonine-protein kinase 2 (Homo sapiens, UniProt Q5S007); assay: Inhibition of GST-tagged LRRK2 (1326 to 2527 residues) (unknown origin) using peptide as substrate incubated for 15 mins in presence of ATP by immunoblotting analysis
Sequence of Leucine-rich repeat serine/threonine-protein kinase 2 (Homo sapiens, UniProt Q5S007) (Q5S007 whole entry, the tested form may be a part): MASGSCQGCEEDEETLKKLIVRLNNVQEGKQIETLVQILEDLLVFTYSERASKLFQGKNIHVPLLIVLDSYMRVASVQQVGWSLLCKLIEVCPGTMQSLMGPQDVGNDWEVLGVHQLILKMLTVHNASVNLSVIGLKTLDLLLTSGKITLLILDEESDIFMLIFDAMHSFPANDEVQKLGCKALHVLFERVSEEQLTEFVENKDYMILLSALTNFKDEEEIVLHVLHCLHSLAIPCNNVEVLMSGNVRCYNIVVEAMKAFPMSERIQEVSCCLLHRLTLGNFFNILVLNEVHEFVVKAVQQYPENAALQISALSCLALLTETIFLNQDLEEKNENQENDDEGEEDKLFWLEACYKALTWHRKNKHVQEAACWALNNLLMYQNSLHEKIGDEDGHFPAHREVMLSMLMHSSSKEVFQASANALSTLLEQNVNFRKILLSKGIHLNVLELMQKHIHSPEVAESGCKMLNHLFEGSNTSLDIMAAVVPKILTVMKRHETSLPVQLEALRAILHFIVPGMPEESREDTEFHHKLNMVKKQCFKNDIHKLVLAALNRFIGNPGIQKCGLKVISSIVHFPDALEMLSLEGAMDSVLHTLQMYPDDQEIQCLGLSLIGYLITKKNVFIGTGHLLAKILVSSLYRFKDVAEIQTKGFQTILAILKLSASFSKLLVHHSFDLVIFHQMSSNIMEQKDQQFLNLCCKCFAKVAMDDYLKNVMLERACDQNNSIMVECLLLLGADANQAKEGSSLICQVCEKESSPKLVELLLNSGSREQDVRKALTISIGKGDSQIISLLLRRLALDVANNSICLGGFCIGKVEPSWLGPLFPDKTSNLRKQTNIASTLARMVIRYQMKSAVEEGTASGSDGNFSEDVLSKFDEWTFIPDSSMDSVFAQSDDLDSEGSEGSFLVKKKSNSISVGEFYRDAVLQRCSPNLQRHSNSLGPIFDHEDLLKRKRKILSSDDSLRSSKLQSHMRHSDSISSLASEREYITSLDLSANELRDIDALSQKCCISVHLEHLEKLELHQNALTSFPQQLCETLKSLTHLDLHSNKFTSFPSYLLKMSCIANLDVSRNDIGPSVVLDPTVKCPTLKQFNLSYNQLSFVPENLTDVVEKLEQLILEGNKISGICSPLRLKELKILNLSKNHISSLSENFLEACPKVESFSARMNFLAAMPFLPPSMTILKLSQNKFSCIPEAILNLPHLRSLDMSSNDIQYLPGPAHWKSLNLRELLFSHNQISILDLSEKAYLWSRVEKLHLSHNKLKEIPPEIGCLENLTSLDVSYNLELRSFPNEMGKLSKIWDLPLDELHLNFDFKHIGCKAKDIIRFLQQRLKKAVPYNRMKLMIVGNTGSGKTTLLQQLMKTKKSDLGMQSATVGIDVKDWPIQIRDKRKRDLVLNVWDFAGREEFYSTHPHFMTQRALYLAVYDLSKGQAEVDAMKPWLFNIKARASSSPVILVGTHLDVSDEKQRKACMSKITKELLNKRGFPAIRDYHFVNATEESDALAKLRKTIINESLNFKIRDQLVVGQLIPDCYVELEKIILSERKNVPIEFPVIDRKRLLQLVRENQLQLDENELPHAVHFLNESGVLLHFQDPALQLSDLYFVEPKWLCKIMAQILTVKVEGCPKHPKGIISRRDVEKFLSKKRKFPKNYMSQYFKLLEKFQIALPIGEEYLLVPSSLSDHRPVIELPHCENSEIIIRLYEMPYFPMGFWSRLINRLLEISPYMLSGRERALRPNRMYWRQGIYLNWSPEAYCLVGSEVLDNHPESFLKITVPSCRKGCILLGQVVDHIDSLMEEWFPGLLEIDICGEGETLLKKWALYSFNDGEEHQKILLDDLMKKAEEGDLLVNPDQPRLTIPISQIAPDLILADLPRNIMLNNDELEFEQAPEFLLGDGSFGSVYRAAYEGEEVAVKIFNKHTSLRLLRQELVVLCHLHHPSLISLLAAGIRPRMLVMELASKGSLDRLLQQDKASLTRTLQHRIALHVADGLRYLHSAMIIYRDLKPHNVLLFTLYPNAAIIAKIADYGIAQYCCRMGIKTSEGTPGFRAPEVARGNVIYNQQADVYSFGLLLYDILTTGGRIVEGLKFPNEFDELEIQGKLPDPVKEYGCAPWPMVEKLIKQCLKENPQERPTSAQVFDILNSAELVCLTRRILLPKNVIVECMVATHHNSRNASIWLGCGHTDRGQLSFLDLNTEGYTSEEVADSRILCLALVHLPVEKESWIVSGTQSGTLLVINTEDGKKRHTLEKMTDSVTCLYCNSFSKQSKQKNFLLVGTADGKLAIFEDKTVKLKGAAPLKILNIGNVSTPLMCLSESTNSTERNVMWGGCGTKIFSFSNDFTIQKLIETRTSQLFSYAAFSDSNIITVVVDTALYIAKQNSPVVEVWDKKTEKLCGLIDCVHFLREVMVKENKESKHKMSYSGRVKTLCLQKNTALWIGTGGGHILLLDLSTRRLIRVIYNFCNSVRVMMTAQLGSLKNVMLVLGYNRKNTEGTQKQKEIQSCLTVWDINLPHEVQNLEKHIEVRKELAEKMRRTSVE

[4] = target: Leucine-rich repeat serine/threonine-protein kinase 2 (Homo sapiens, UniProt Q5S007, G2019S); assay: Inhibition of GST-tagged LRRK2 G2019S mutant (1326 to 2527 residues) (unknown origin) using peptide as substrate incubated for 15 mins in presence of ATP by immunoblotting analysis
Sequence of Leucine-rich repeat serine/threonine-protein kinase 2 (Homo sapiens, UniProt Q5S007, G2019S) (Q5S007 whole entry G2019S, the tested form may be a part): as the sequence (Q5S007 whole entry, the tested form may be a part) above, with G2019S counted along it

[5] = target: T1, Mitogen-activated protein kinase kinase kinase kinase 2 (Homo sapiens) (UniProt Q12851); assay: Inhibition of GCK (unknown origin) at 1 uM incubated for 30 mins in presence of [gamma-33P]ATP by multidrop micro reagent based assay relative to control
T1 sequence (whole entry): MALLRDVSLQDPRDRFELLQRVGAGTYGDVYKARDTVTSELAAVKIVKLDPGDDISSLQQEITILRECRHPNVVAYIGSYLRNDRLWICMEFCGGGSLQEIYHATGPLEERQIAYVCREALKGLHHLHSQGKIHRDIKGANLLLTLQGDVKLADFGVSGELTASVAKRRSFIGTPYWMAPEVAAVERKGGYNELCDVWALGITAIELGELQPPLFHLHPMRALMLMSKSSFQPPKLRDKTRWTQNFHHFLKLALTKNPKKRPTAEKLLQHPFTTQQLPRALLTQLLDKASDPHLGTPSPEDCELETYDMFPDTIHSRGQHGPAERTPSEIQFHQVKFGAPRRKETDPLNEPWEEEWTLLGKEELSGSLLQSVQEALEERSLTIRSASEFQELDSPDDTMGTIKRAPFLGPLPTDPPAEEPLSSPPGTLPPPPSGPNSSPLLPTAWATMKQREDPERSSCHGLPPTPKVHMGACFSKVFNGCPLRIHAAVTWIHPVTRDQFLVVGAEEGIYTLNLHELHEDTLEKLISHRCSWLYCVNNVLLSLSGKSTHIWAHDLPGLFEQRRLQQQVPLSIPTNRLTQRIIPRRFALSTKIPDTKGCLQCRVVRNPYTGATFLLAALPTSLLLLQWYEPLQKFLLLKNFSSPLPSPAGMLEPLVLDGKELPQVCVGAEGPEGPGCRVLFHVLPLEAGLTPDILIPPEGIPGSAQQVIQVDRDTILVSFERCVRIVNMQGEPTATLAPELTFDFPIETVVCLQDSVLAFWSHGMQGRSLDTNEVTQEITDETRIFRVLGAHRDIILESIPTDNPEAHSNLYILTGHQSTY

[6] = target: Mitogen-activated protein kinase kinase kinase 11 (Homo sapiens) (UniProt Q16584); assay: Inhibition of MLK3 (unknown origin) at 1 uM incubated for 30 mins in presence of [gamma-33P]ATP by multidrop micro reagent based assay relative to control; values are per cent of control
Sequence of Mitogen-activated protein kinase kinase kinase 11 (Homo sapiens) (Q16584 whole entry, looked up): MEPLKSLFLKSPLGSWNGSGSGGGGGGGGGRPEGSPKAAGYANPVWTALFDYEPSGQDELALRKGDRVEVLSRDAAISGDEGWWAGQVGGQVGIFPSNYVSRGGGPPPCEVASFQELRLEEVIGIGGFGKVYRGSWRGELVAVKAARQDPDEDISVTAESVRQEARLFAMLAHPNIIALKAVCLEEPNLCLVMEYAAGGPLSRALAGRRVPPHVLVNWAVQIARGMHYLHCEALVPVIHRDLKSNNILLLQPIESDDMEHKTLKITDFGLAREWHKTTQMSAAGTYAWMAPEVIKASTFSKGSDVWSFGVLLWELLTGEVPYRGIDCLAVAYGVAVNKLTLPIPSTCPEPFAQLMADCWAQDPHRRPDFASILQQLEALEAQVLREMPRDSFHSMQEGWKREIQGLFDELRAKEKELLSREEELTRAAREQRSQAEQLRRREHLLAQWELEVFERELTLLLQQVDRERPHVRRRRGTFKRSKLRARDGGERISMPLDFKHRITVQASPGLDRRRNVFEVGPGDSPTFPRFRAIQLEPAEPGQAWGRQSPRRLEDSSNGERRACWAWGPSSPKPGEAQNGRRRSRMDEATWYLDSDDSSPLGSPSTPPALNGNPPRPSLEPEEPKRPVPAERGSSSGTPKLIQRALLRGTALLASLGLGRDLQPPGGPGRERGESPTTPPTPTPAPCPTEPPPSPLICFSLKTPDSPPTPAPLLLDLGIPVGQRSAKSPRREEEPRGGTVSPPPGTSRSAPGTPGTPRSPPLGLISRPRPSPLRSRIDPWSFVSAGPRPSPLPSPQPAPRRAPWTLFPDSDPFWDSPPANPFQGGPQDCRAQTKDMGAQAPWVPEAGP

[7] = target: Mitogen-activated protein kinase 3 (Homo sapiens) (UniProt P27361); assay: Inhibition of ERK1 (unknown origin) at 1 uM incubated for 30 mins in presence of [gamma-33P]ATP by multidrop micro reagent based assay relative to control; values are per cent of control
[8] = target: MAP kinase-interacting serine/threonine-protein kinase 2 (Homo sapiens) (UniProt Q9HBH9); assay: Inhibition of MNK2 (unknown origin) at 1 uM incubated for 30 mins in presence of [gamma-33P]ATP by multidrop micro reagent based assay relative to control; values are per cent of control
[9] = target: MAP/microtubule affinity-regulating kinase 3 (Homo sapiens) (UniProt P27448); assay: Inhibition of MARK3 (unknown origin) at 1 uM incubated for 30 mins in presence of [gamma-33P]ATP by multidrop micro reagent based assay relative to control; values are per cent of control
Sequence of MAP/microtubule affinity-regulating kinase 3 (Homo sapiens) (P27448 whole entry, looked up): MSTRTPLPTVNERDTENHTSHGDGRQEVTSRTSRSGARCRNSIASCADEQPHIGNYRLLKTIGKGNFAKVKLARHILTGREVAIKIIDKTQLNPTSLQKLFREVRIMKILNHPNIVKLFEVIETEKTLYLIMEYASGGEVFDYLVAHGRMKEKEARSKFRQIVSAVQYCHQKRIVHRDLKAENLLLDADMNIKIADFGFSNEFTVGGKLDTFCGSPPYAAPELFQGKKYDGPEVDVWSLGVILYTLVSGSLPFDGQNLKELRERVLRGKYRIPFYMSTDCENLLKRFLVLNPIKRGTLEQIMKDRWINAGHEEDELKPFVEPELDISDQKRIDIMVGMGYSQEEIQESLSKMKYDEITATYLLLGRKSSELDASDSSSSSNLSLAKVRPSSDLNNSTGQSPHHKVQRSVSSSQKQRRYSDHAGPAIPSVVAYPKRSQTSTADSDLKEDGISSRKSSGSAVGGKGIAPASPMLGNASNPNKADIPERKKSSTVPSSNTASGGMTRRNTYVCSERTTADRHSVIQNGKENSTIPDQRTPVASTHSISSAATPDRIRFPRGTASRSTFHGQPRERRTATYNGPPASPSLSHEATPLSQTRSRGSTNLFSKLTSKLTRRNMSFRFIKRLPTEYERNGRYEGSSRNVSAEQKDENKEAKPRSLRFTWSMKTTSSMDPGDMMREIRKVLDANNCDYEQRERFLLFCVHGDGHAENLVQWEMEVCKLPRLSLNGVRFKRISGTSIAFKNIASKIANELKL

[10] = target: T2, Dual specificity tyrosine-phosphorylation-regulated kinase 2 (Homo sapiens) (UniProt Q92630); assay: Inhibition of DYRK2 (unknown origin) at 1 uM incubated for 30 mins in presence of [gamma-33P]ATP by multidrop micro reagent based assay relative to control; values are per cent of control
T2 sequence (whole entry): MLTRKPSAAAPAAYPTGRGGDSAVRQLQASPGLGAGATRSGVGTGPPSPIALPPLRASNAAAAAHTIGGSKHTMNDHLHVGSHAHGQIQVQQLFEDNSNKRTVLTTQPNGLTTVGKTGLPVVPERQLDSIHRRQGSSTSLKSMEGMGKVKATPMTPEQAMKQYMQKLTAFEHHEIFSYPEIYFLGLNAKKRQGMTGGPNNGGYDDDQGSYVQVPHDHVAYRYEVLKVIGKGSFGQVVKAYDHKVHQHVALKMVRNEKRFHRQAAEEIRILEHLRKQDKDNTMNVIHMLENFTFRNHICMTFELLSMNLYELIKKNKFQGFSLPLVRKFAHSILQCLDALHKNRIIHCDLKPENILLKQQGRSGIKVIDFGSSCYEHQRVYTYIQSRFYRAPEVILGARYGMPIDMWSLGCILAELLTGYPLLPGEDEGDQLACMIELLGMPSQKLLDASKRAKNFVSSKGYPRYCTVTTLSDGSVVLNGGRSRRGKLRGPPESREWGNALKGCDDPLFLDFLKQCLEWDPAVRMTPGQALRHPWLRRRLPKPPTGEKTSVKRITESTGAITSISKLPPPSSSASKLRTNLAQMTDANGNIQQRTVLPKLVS

[11] = target: Calcium/calmodulin-dependent protein kinase kinase 2 (Homo sapiens) (UniProt Q96RR4); assay: Inhibition of CaMKKbeta (unknown origin) at 1 uM incubated for 30 mins in presence of [gamma-33P]ATP by multidrop micro reagent based assay relative to control; values are per cent of control
Sequence of Calcium/calmodulin-dependent protein kinase kinase 2 (Homo sapiens) (Q96RR4 2-588 limits assumed): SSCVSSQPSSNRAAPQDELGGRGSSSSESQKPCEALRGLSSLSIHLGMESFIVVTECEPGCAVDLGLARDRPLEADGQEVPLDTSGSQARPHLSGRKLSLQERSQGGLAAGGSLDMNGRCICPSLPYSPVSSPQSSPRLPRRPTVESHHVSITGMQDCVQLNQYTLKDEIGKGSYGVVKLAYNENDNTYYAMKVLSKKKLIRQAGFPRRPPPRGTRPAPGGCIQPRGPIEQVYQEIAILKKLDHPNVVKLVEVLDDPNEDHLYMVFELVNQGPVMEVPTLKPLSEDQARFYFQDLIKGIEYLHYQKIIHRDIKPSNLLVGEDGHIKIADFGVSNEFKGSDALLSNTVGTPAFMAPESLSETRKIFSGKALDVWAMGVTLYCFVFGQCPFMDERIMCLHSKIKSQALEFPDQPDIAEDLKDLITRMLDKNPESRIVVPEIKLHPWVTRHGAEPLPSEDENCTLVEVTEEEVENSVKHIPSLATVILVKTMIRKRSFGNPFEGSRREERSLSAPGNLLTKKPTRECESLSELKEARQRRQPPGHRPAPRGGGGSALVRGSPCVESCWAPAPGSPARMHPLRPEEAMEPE

Sequence of Leucine-rich repeat serine/threonine-protein kinase 2 (Homo sapiens), Q5S007 [G2019S] (Q5S007 whole entry G2019S): as the sequence (Q5S007 whole entry, the tested form may be a part) above, with G2019S counted along it

Row | Compound | residual activity [1] [%] | residual activity [2] [%] | IC50 [3] [µM] | IC50 [4] [µM] | residual activity [5] [%] | residual activity [6] [%] | residual activity [7] [%] | residual activity [8] [%] | residual activity [9] [%] | residual activity [10] [%] | residual activity [11] [%]
1 | CC1=C(C(=O)Nc2cc3cn[nH]c3cc2F)C(c2ccc(C(F)(F)F)cc2)CC(=O)N1 (stereo unspecified) | 97 | 82 | > 100 | > 100 | 97 | 116 | 90 | 88 | 98 | 92 | 100
2 | Cc1cncc2cccc(S(=O)(=O)N3CCCNC[C@@H]3C)c12 | 13 | 70 | 0.244 | 0.15 | 56 | 85 | 105 | 49 | 56 | 84 | 81
3 | CCN(CC)CCNC(=O)c1c(C)[nH]c(/C=C2\C(=O)Nc3ccc(F)cc32)c1C |  |  |  |  |  |  |  |  |  |  | 39
4 | O=S(=O)(c1cccc2cnccc12)N1CCCNCC1 [FASUDIL] |  |  | > 30 | > 30 |  |  |  |  |  |  | 
5 | CCn1c(-c2nonc2N)nc2cnc(Oc3cccc(NC(=O)c4ccc(OCCN5CCOCC5)cc4)c3)cc21 [GSK-269962A] | 66 | 32 | 3.7 | 2.3 | 78 | 97 | 106 | 51 | 67 | 64 | 98
